This passage reports IC50 and Ki results from ChEMBL document CHEMBL1909046, “DrugMatrix in vitro pharmacology data”.

For test [1], the target named is Vascular endothelial growth factor receptor 1 (Homo sapiens, UniProt P17948). Put plainly: biochemical. Format: cell-based, HUVEC. Particulars: huvec. Further: in other assays of this panel Not Active means under 50% inhibition at 10 µM.
A short description of test [2]: DRUGMATRIX: Serotonin (5-Hydroxytryptamine) 5-HT3 radioligand binding (ligand: [3H] GR-65630). The test is classed as cell membranes, Membrane. The settings on record: hek293; Not Active = under 50% inhibition at 10 µM.
For a further test, the target named is T1, Adenosine receptor A1 (Homo sapiens, UniProt P30542).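 Further: radioligand binding assay at the adenosine A1 receptor, with DPCPX serving as the labelled ligand; in other assays of this panel Not Active means under 50% inhibition at 10 µM.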
T1 sequence (P30542 whole entry): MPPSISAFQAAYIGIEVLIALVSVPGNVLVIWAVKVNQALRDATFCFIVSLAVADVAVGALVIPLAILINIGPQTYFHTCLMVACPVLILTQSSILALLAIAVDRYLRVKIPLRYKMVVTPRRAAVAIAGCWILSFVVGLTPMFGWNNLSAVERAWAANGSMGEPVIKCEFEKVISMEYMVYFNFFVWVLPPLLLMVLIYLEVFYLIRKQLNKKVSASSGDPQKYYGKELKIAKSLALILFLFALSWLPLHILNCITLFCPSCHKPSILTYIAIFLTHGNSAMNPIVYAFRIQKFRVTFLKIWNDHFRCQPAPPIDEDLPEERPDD
The test is classed as cell membranes, CHO, Membrane.

Test [3] concerns the target T2, C-X-C chemokine receptor type 1 (Homo sapiens, UniProt P25024). Further: in other assays of this panel Not Active means under 50% inhibition at 10 µM.
T2 sequence (P25024 whole entry): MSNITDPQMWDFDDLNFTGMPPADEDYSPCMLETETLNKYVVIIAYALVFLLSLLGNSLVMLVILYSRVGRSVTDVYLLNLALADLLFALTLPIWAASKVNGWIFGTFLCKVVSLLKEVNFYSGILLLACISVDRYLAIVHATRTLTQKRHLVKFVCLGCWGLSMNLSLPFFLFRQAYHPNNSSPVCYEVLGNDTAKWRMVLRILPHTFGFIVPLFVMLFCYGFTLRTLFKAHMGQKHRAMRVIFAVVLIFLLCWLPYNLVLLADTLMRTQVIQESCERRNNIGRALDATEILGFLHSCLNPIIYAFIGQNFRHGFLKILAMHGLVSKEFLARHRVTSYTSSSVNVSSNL

For test [4], the target named is T3, Angiotensin-converting enzyme (Oryctolagus cuniculus, UniProt P12822).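 Further: enzymatic inhibition of angiotensin-converting enzyme measured with FAPGG as the substrate; in other assays of this panel Not Active means under 50% inhibition at 10 µM.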
T3 sequence (P12822 whole entry): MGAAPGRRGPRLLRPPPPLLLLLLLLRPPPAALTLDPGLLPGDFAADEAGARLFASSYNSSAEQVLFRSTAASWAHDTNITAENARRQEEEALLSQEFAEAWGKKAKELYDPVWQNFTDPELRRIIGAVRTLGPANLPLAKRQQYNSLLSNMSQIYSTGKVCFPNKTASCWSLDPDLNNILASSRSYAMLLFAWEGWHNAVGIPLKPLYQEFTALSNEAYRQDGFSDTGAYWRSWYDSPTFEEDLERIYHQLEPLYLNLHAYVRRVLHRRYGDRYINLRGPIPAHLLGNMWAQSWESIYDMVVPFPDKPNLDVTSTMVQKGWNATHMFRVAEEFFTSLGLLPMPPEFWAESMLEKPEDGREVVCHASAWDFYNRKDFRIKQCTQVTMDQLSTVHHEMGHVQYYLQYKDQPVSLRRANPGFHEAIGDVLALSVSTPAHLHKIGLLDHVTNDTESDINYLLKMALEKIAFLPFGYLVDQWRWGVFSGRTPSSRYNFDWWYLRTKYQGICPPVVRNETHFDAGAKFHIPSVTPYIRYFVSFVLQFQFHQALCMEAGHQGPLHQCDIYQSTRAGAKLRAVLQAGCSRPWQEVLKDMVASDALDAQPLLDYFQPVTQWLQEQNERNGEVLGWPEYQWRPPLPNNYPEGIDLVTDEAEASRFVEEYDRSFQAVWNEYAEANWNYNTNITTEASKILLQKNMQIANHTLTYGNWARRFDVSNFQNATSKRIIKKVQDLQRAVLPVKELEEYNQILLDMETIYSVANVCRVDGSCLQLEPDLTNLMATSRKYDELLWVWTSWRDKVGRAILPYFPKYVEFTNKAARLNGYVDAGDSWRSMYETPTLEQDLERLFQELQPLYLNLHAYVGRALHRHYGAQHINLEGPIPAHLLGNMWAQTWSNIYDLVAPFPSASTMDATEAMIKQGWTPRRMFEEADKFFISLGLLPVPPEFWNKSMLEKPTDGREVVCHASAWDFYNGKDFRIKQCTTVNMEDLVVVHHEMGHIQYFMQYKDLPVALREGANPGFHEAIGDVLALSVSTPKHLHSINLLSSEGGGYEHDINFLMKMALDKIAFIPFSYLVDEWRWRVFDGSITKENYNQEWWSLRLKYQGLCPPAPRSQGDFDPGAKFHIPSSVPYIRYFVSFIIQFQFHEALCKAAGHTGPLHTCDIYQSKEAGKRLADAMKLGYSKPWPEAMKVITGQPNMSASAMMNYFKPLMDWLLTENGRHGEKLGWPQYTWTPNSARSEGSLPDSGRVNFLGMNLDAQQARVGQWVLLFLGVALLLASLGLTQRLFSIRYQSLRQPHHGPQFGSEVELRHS
Format: tissue-based, Lung.

A short description of test [5]: DRUGMATRIX: Phosphodiesterase PDE3 enzyme inhibition (substrate: [3H]cAMP + cAMP). Format: tissue-based, Homo sapiens. The settings on record: platelet; Not Active = under 50% inhibition at 10 µM.
Test [6] deals with T4, Type-2 angiotensin II receptor (Homo sapiens, UniProt P50052).
T4 sequence (P50052 whole entry): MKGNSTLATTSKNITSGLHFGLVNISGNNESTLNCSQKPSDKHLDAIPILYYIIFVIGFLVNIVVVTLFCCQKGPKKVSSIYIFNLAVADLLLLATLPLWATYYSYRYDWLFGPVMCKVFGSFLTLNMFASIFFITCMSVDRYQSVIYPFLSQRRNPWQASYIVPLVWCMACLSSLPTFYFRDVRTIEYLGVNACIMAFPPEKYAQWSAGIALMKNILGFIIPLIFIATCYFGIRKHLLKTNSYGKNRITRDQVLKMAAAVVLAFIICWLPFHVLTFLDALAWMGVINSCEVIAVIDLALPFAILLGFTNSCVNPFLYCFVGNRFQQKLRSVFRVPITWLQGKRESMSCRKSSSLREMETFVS
Format: cell-based. The settings on record: cho-k1.

By IC50 is commonly meant the concentration that inhibits the measured activity by half. Usually Ki stands for a measure of affinity in units of concentration, obtained from inhibition or displacement.

Sequence of Vascular endothelial growth factor receptor 1 (P17948 whole entry): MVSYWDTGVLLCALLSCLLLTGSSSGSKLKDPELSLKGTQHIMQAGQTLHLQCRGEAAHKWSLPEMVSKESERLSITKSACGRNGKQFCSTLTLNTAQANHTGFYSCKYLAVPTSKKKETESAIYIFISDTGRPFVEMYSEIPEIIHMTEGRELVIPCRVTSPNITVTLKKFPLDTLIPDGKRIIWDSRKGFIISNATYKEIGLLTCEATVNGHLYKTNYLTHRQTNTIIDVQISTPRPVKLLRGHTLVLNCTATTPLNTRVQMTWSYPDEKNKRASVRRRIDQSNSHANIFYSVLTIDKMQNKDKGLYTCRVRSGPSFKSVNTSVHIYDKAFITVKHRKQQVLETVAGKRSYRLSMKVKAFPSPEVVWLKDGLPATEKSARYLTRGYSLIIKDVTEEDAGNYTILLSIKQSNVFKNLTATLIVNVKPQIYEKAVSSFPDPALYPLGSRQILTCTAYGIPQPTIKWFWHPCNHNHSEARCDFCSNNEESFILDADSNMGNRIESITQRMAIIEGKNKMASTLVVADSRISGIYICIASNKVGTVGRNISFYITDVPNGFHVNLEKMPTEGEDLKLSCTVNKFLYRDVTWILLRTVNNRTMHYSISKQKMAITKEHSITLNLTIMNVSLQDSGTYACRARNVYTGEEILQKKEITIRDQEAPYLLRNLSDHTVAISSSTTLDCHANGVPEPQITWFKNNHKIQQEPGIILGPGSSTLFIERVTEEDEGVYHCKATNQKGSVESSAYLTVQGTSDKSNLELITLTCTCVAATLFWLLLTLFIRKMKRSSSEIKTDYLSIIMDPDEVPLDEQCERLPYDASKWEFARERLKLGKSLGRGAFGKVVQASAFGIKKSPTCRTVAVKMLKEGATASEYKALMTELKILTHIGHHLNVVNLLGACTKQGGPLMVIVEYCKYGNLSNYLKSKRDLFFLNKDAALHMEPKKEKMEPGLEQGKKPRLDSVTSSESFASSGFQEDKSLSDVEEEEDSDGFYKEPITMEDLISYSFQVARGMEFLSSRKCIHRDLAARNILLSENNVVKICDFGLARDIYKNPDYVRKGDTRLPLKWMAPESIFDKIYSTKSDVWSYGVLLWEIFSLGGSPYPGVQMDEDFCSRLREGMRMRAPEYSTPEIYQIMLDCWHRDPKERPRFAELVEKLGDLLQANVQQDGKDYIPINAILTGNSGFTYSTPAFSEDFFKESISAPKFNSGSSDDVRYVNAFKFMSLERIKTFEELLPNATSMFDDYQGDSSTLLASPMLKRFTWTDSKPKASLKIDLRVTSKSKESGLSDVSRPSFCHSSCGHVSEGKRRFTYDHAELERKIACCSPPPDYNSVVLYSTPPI

As to `O=c1cc(N2CCOCC2)oc2c(-c3ccccc3)cccc12` [LY-294002], the IC50 entry (in test [1]; in test [2]; against Adenosine receptor A1 (cho); in test [3]; in test [4]; in test [5]) was “Not Active” in each case. The IC50 result in test [6] is on record as “Not Active”. Besides, the inhibitory constant (Ki) entry in test [2] and in test [5] was “Not Active” throughout.

`COc1ccc2[nH]cc(CCNC(C)=O)c2c1` [MELATONIN]: the concentration for half-maximal inhibition (IC50) entry (in test [1]; in test [2]; on Adenosine receptor A1 (cho); in test [3]; in test [4]; in test [5]) was “Not Active” each time. In test [6], the half-inhibitory concentration (IC50) entry is “Not Active”. In addition, the Ki result in test [2] and in test [5] was “Not Active” throughout.

For `NC(=O)C[S+]([O-])C(c1ccccc1)c1ccccc1` (configuration not stated) [MODAFINIL], the IC50 entry (in test [1]; in test [2]; at Adenosine receptor A1 (cho); in test [3]; in test [4]; in test [5]) was “Not Active” in each case. Also, in test [6], the 50% inhibitory concentration (IC50) result was “Not Active”. Besides, the Ki result in test [2] and in test [5] was “Not Active” throughout.

Consider `CCN(CC)CCOCCC1=CCC2CC1C2(C)C` (configuration not stated) [MYRTECAINE], for which the IC50 entry (in test [1]; in test [2]; at Adenosine receptor A1 (cho); in test [3]; in test [4]; in test [5]) was “Not Active” in each case. Besides, in test [6], the 50% inhibitory concentration (IC50) entry is “Not Active”. Moreover, the Ki entry in test [2] and in test [5] was “Not Active” in each case.

`O=C(O)c1cccnc1Nc1cccc(C(F)(F)F)c1` [NIFLUMIC ACID]: the IC50 result (in test [1]; in test [2]; at Adenosine receptor A1 (cho); in test [3]; in test [4]; in test [5]) was “Not Active” throughout. Besides, in test [6], the IC50 result was “Not Active”. For the same molecule, the inhibition constant Ki result in test [2] and in test [5] was “Not Active” each time.

Turning to `O=C(N/N=C/c1ccc([N+](=O)[O-])o1)c1cc([N+](=O)[O-])cc([N+](=O)[O-])c1O` [NIFURSOL], the IC50 result (in test [1]; in test [2]; against Adenosine receptor A1 (cho); in test [3]; in test [4]; in test [5]) was “Not Active” each time. Besides, the IC50 entry in test [6] is listed as “Not Active”. For the same molecule, the inhibition constant Ki entry in test [2] and in test [5] was “Not Active” each time.

For `COC(=O)Nc1nc2ccc(C(=O)c3cccs3)cc2[nH]1` [NOCODAZOLE], the concentration for half-maximal inhibition (IC50) result in test [1] is “Not Active”; in test [2], “Not Active”; on Adenosine receptor A1 (read-out: IC50), 50.3 µM; in test [3], “Not Active”; in test [4], “Not Active”; in test [5], “Not Active”. Further, the IC50 result in test [6] is reported as “Not Active”. Moreover, the Ki result in test [2] is “Not Active”; at Adenosine receptor A1 (read-out: Ki), 29.4 µM; in test [5] it was “Not Active”.

For `C#CC1(O)CC[C@H]2[C@@H]3CCC4=CC(=O)CC[C@@H]4[C@H]3CC[C@@]21CC` (some centres not stated) [NORGESTREL], the IC50 result (in test [1]; in test [2]; on Adenosine receptor A1 (cho); in test [3]; in test [4]; in test [5]) was “Not Active” in each case. Further, in test [6], the IC50 entry was “Not Active”. Also, the Ki entry in test [2] and in test [5] was “Not Active” throughout.

Consider `COC(=O)Nc1nc2ccc([S+]([O-])c3ccccc3)cc2[nH]1` (configuration not stated) [OXFENDAZOLE], for which the half-inhibitory concentration (IC50) entry (in test [1]; in test [2]; against Adenosine receptor A1 (cho); in test [3]; in test [4]; in test [5]) was “Not Active” throughout. The half-inhibitory concentration (IC50) entry in test [6] was “Not Active”. In addition, the inhibition constant (Ki) entry in test [2] and in test [5] was “Not Active” throughout.

Regarding `CC(=O)O[C@H]1C(=O)[C@@]2(C)[C@H]([C@H](OC(=O)c3ccccc3)[C@]3(O)C[C@H](OC(=O)[C@H](O)[C@@H](NC(=O)c4ccccc4)c4ccccc4)C(C)=C1C3(C)C)[C@]1(OC(C)=O)CO[C@@H]1C[C@@H]2O` [PACLITAXEL], the IC50 entry (in test [1]; in test [2]; at Adenosine receptor A1 (cho); in test [3]; in test [4]; in test [5]) was “Not Active” each time. In test [6], the half-inhibitory concentration (IC50) result is reported as “Not Active”. In addition, the Ki entry in test [2] and in test [5] was “Not Active” throughout.

With `C[n+]1ccc(-c2cc[n+](C)cc2)cc1.[Cl-].[Cl-]` [PARAQUAT DICHLORIDE], the IC50 result (in test [1]; in test [2]; on Adenosine receptor A1 (cho); in test [3]; in test [4]; in test [5]) was “Not Active” throughout. Further, the IC50 result in test [6] is listed as “Not Active”. The Ki entry in test [2] and in test [5] was “Not Active” throughout.

As to `CC(C)NCC(O)COc1cccc2[nH]ccc12` (configuration not stated) [PINDOLOL], the IC50 entry (in test [1]; in test [2]; at Adenosine receptor A1 (cho); in test [3]; in test [4]; in test [5]) was “Not Active” each time. For the same molecule, in test [6], the IC50 entry was “Not Active”. Besides, the inhibition constant Ki result in test [2] and in test [5] was “Not Active” throughout.

As for `CCn1cc(C(=O)O)c(=O)c2cnc(N3CCCC3)nc21` [PIROMIDIC ACID], the 50% inhibitory concentration (IC50) entry (in test [1]; in test [2]; against Adenosine receptor A1 (cho); in test [3]; in test [4]; in test [5]) was “Not Active” each time. Besides, the half-maximal inhibitory concentration (IC50) entry in test [6] is recorded as “Not Active”. Moreover, the inhibition constant (Ki) result in test [2] and in test [5] was “Not Active” in each case.

As to `C[n+]1ccccc1/C=N/O.[Cl-]` [PRALIDOXIME CHLORIDE], the 50% inhibitory concentration (IC50) result (in test [1]; in test [2]; at Adenosine receptor A1 (cho); in test [3]; in test [4]; in test [5]) was “Not Active” throughout. In addition, in test [6], the IC50 entry is “Not Active”. In addition, the Ki result in test [2] and in test [5] was “Not Active” in each case.
